Where two headings read alike, the source gives them in different places.
Columns and labels:
[1] = test system: intracellular MRSA in HeLa cells; assay: Gentamicin protection assay with CFU count in MRSA-infected HeLa cells; format: cell-based, Staphylococcus aureus; conditions: for reduction of intracellular bacterial burden (CFU): validation of 17 hit compounds, Figure 2A; for reduction in bacterial burden (CFU): Figure 2B, n=17
Method in brief: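 Cells infected with MRSA (mean MOI 6.8 ± 4.6) for 1 hour at 37°C, extracellular bacteria killed with 30 µg/ml gentamicin for 15 min, then overnight with kinase inhibitor plus 5 µg/ml gentamicin; DMSO as negative control. Cells lysed in water with 0.05% SDS, lysates serially diluted and plated for CFU; triplicate per compound.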

MRSA = format: in vivo, zebrafish; conditions: for survival rate of MRSA-infected zebrafish embryos: 10 µM, after 4 days, 1000 CFUs MRSA, DMSO 57.5%, uninfected 93.8%
Procedure: Zebrafish embryos were dechorionated at 24 hpf. The OD600 of a log-phase MRSA culture was centrifuged and dissolved in PBS with 2% polyvinylpyrrolidone (Merck) to improve homogeneity of the bacterial suspension. The OD600 was measured and the bacterial suspension was diluted to a final concentration of 10^9 CFUs/ml accordingly. The preparation of injection needles and the equipment used for microinjections have been previously described ([Benard et al., 2012]). At 28 hpf, zebrafish embryos were anesthetized in 200 µg/ml buffered ethyl 3-aminobenzoic acid (Tricaine, Sigma-Aldrich) and injected in the blood island with a bacterial dose of 1 nl containing 1000 CFUs of MRSA. Infected embryos were collected and randomly distributed over 6-wells plates with ten embryos/well. At 30 hpf, the infected embryos were given kinase inhibitors or DMSO as negative control. Survival of the embryos was scored at 48, 72, 96 and 120 hpf.

zebrafish embryos = assay: Zebrafish embryo toxicity test; format: in vivo; conditions: for further signs of toxicity in zebrafish embryos: serial dilutions; for concentration well tolerated in zebrafish embryos: wild type AB/TL
Procedure: All experiments with zebrafish were done on embryos or larvae up to 5 days post fertilization, which have not yet reached the free-feeding stage and which were of the wild type AB/TL line. Fertilized embryos were maintained at 28°C and kept in egg water containing 60 μg/ml Instant Ocean Sea Salt (Sera, Heinsberg Germany). Zebrafish embryos were dechorionated with Dumont #5 forceps (Fine Science Tools Inc., Foster City, CA, USA) at 24 hours post fertilization (hpf) and transferred to 96-wells plates with each well containing a single embryo. Subsequently, the embryos were treated with kinase inhibitors or DMSO at 30 hpf. The health status of the embryos was assessed at 120 hpf. Healthy embryos were given a health score of 5. Health points were withdrawn for each of the following symptoms: no responsiveness to physical stimulation, cranial malformations, oedema or tail malformations. Dead embryos were given a health score of 0.

HeLa cells = format: cell-based, human; conditions: for cytotoxicity / cell viability by LDH-release: 30 µM
Procedure: Before harvesting or lysing the cells of the intracellular infection assays, the supernatant from the cells was collected to quantify LDH release by the cells using the LDH cytotoxicity detection kit (Roche, Merck, Darmstadt, Germany) according to the manufacturer’s instructions. Triton X-100 results in maximum LDH release by permeabilizing the cells and was used as positive control. Quantification was performed with the EnVision plate reader.

intracellular MRSA = format: cell-based, Staphylococcus aureus; conditions: for %GFP+ rep 1 / z-scoreMRSA+ rep 1: replicate 1; for %GFP+ rep 2 / z-scoreMRSA+ rep 2: replicate 2; for %GFP+ rep 3 / z-scoreMRSA+ rep 3: replicate 3; for z-scoreMRSA+ mean: mean of 3 replicates
Method in brief: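 HeLa cells were infected with GFP-expressing MRSA (mean MOI 6.8) for 1 h, treated with 30 µg/ml gentamicin for 15 min, then incubated overnight at 37°C with kinase inhibitors and 5 µg/ml gentamicin. Flow cytometry gave % GFP-positive cells, with cell count as viability. Hits were z-score ≤ -2 (infection) and ≥ -3 (count) versus DMSO.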

[2] = test system: HeLa, MelJuSo, A549, MCF7 and PMA-differentiated THP-1 cells; assay: Light microscopy of cell morphology (cytopathogenic effects); format: cell-based, human; conditions: for changes in cell morphology / cytopathogenic effects by light microscopy: 10 µM, HeLa, MelJuSo, A549, MCF7, THP-1 cells
[3] = PKIS compounds raw data, MRSA-infected HeLa cells
[4] = compound screen, MRSA-infected HeLa cells
[5] = PKIS compound screen raw data, MRSA-infected HeLa cells
[6] = PKIS compound screen, MRSA-infected HeLa cells
[7] = PKIS compound screen, Yes/No call
[8] = PKIS compound screen, Yes/No call (effect without cell death)

Compound | reduction of intracellular bacterial burden (CFU) ([1]; 10 µM) [%] | reduction in bacterial burden (CFU) ([1]; HeLa cells, 10 µM) [%] | survival rate of MRSA-infected zebrafish embryos (MRSA) [%] | further signs of toxicity in zebrafish embryos (zebrafish embryos; 120 hpf) | concentration well tolerated in zebrafish embryos (zebrafish embryos; zebrafish, in vivo) [µM] | cytotoxicity / cell viability by LDH-release (HeLa cells; MRSA-infected HeLa cells) | %GFP+ rep 1 (intracellular MRSA; [3]) [%] | %GFP+ rep 2 (intracellular MRSA; [3]) [%] | %GFP+ rep 3 (intracellular MRSA; [3]) [%] | changes in cell morphology / cytopathogenic effects by light microscopy [2] | lowest concentration acting against intracellular MRSA (titration) ([1]; MRSA-infected HeLa cells) [nM] | effect (intracellular MRSA; [7]) | hit (intracellular MRSA; [8]) | z-scoreMRSA+ mean (intracellular MRSA; PKIS compound screen) | z-scoreMRSA+ rep 1 (intracellular MRSA; PKIS compound screen) | z-scoreMRSA+ rep 2 (intracellular MRSA; PKIS compound screen) | z-scoreMRSA+ rep 3 (intracellular MRSA; PKIS compound screen) | other results
COc1ccc2[nH]c3c4[nH]c5ccc(OC)cc5c4c4c(c3c2c1)C(=O)NC4=O [GW296115X] | 67 | 70 | 77.5 | no further signs of toxicity were observed | ≤ 10 | limited cytotoxicity | 2.3 | 1.8 | 2.2 | slight changes in cell morphology | – | – | – | – | – | – | – | bacterial killing when bafilomycin A1 is added ([1]; HeLa cells, combined with bafilomycin A1 (100 nM), Figure 5H): reverted; reduction of the intracellular bacterial burden, maximal ([1]; MRSA-infected HeLa cells, titration): up to 80%; Emax ([1]; Staphylococcus aureus, MRSA, HeLa): -80%; IC50 ([1]; Staphylococcus aureus, MRSA, HeLa, read-out: IC50 for reduction of intracellular bacterial burden): 159 nM; cell viability of MRSA-infected cells (HeLa cells; HeLa cells, Figure 5K): able to fully restore the loss in cell viability; cell viability of MRSA-infected cells (LDH-release) (HeLa cells; MRSA-infected HeLa cells, 10 µM, Figure 2G): rescued the loss of viability; host cell viability when bafilomycin A1 is added (HeLa cells; MRSA-infected HeLa cells, combined with bafilomycin A1 (100 nM), Figure 5I): reverted; z-scoreMRSA+ (z-score of GFP-positive cells) (intracellular MRSA; 10 µM, 24 h, HeLa cells infected with GFP-expressing MRSA): -3.82; MRSA-infected cells (mean ± SD) (intracellular MRSA; 10 µM, 24 h, HeLa cells, DMSO 14.6% ± 1.0%): 2.1% ± 0.26; effect (intracellular MRSA; Yes/No call from z-scoreMRSA+): Yes; hit (intracellular MRSA; Yes/No: effect without cell death): Yes; z-scoreMRSA+ mean (intracellular MRSA; [4]): -3.82; z-scoreMRSA+ rep 1 (intracellular MRSA; [4]): -3.48; z-scoreMRSA+ rep 2 (intracellular MRSA; [4]): -3.91; z-scoreMRSA+ rep 3 (intracellular MRSA; [4]): -4.06
CC(C)c1nc(-c2cccc(NS(=O)(=O)c3c(F)cccc3F)c2F)c(-c2ccnc(Nc3ccc(N4CCOCC4)nc3)n2)s1 [GSK2008607A] | 56 | 72 | – | – | – | became cytotoxic | 21.4 | 20.1 | 23.7 | cytopathogenic effects were observed | 10 | No | No and Yes | -0.97 | -1.10 | -1.14 | -0.66 | toxicity in MRSA-infected zebrafish embryos (MRSA; 1 µM): severe compound-related toxicity; embryos that died, of 15 (zebrafish embryos; 1 µM, 120 hpf): one; symptoms of surviving zebrafish embryos (zebrafish embryos; 3 and 10 µM, 120 hpf): oedema of the heart sac and yolk, as well as unresponsiveness to physical stimulation; zebrafish embryo mortality (zebrafish embryos; 3 and 10 µM, treated 30 hpf, scored 120 hpf): caused zebrafish embryo mortality; concentrations exhibiting toxicity in zebrafish embryos (zebrafish embryos; zebrafish, in vivo): ≥ 1 µM; embryos that did not respond to physical stimulation, of 15 (zebrafish embryos; zebrafish, in vivo): another; embryos with cranial malformations, of 15 (zebrafish embryos; zebrafish, in vivo): two; embryos with oedema, of 15 (zebrafish embryos; zebrafish, in vivo): three; %GFP+ rep 1 (intracellular MRSA; [5]): 8.4%; %GFP+ rep 2 (intracellular MRSA; [5]): 9.2%; %GFP+ rep 3 (intracellular MRSA; [5]): 10.2%; z-scoreMRSA+ mean (intracellular MRSA; [6]): -2.86; z-scoreMRSA+ rep 1 (intracellular MRSA; [6]): -2.77; z-scoreMRSA+ rep 2 (intracellular MRSA; [6]): -2.79; z-scoreMRSA+ rep 3 (intracellular MRSA; [6]): -3.01; effect (intracellular MRSA; PKIS compound screen, Yes/No call on z-scoreMRSA+): Yes; cytopathogenic effects in HeLa cells ([2]; 1 µM): cytopathogenic effects were already observed
O=S(=O)(CCNCc1ccc(-c2ccc3ncnc(Nc4ccc(OCc5cccc(F)c5)c(Cl)c4)c3c2)o1)c1ccccc1 [GW633459A] | 59 | 50 | 67.5 | no further signs of toxicity were observed | ≤ 10 | only marginally affected | 6.2 | 7.3 | 6.6 | not observed | 10 | Yes | Yes | -2.34 | -2.22 | -2.06 | -2.75 | CFU (% of DMSO) at 10 µM ([1]; 10 µM, MRSA-infected HeLa cells): 41.2 % of DMSO

Source: article PMC10999543, “Identification of kinase modulators as host-directed therapeutics against intracellular methicillin-resistant Staphylococcus aureus” (Frontiers in Cellular and Infection Microbiology, 2024)
